Assay results reported in patent publication US20240270740A1, “INHIBITORS OF CYCLIC GMP-AMP SYNTHASE AND USES THEREOF” (Ventus Therapeutics U.S., Inc., priority 2022, published 2024).

Each molecule was assayed against T1, hcGAS (Homo sapiens, UniProt Q8N884) (assay: hcGAS Kinase-Glo assay (ATP depletion)). Conditions: 40 nM hcGAS, 100 μM ATP, 100 μM GTP, 25 nM dsDNA, 3 h incubation.
Format: biochemical
Description: cGAS catalyzes the cyclization of ATP and GTP to produce cGAMP, which is the activating ligand of STING. Human cGAS (hcGAS) inhibition can thus be quantified by measuring how much cGAMP is formed either indirectly, by monitoring ATP-depletion as in the hcGAS Kinase-Glo assay (as described below), or directly, such as using the hcGAS LCMS assay (as described below).
(i) hcGAS Kinase-Glo Assay
Compounds were tested for their human-cGAS […] inhibition activity using the methodology reported in Lama et al., “Development of human cGAS-specific small molecule inhibitors for repression of dsDNA-triggered interferon expression”, Nature Communications 10, Article number: 2261 (2019), with slight changes to some conditions as shown in Table B.
The results of the assay, expressed in IC50 values, are reported in Table D with the following designations: A represents an IC50 value<0.01 μM; B represents an IC50 value≥0.01 μM and <0.03 μM; C represents an IC50 value≥0.03 μM and <0.1 μM; D represents an IC50 value≥0.1.

T1 sequence (Q8N884 whole entry): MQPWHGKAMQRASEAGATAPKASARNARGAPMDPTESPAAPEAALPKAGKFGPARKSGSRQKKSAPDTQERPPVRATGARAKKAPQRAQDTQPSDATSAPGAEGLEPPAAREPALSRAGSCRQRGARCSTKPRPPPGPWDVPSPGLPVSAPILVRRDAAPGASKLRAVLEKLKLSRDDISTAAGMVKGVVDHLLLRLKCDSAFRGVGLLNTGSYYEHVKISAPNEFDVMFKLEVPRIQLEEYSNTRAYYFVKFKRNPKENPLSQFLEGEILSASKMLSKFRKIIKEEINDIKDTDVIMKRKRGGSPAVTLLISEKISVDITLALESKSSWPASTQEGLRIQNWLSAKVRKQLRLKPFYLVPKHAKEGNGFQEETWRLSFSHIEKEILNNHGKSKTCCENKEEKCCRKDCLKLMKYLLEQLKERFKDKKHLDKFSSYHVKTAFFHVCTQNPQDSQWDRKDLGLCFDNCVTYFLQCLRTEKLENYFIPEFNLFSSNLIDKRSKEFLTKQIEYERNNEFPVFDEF

`COc1c(NC23CC(C#N)(C2)C3)cc(C(=O)Nc2nnc(-n3nccc3C)s2)oc1=O` [Compound 45, 4-((3-cyanobicyclo[1.1.1]pentan-1-yl)amino)-3-methoxy-N-(5-(5-methyl-1H-pyrazol-1-yl)-1,3,4-thiadiazol-2-yl)-2-oxo-2H-pyran-6-carboxamide] and `COc1c(N[C@@H]2CC[C@H]2O)cc(C(=O)Nc2nnc(-n3nccc3C)s2)oc1=O` (racemic) [Rac-37, 4-(((1R,2R)-2-hydroxycyclobutyl)amino)-3-methoxy-N-(5-(5-methyl-1H-pyrazol-1-yl)-1,3,4-thiadiazol-2-yl)-2-oxo-2H-pyran-6-carboxamide] fall in the same range of IC50: 10 to 30 nM for the first, 10 to 30 nM for the second.

Compared with `COCCCNc1cc(C(=O)Nc2nnc(-n3nccc3C)s2)oc(=O)c1OC` [Compound 32, 5-methoxy-4-(3-methoxypropylamino)-N-(5-(5-methyl-1H-pyrazol-1-yl)-1,3,4-thiadiazol-2-yl)-6-oxo-6H-pyran-2-carboxamide], `COc1c(N[C@H]2C[C@H](OC)C2)cc(C(=O)Nc2nnc(-n3nccc3C)s2)oc1=O` [Compound 69, 3-methoxy-4-(((1,3-trans)-3-methoxycyclobutyl)amino)-N-(5-(5-methyl-1H-pyrazol-1-yl)-1,3,4-thiadiazol-2-yl)-2-oxo-2H-pyran-6-carboxamide] is lower in IC50: 30 to 100 nM for the first, 10 to 30 nM for the second.

`COC[C@@H]1CCCN1c1cc(C(=O)Nc2nnc(-n3nccc3C)s2)oc(=O)c1OC` [Compound 39, (S)-3-methoxy-4-(2-(methoxymethyl)pyrrolidin-1-yl)-N-(5-(5-methyl-1H-pyrazol-1-yl)-1,3,4-thiadiazol-2-yl)-2-oxo-2H-pyran-6-carboxamide] and `COc1c(N2CCC(CO)CC2)cc(C(=O)Nc2nnc(-n3nccc3C)s2)oc1=O` [Compound 12, 4-(4-(hydroxymethyl)piperidin-1-yl)-3-methoxy-N-(5-(5-methyl-1H-pyrazol-1-yl)-1,3,4-thiadiazol-2-yl)-2-oxo-2H-pyran-6-carboxamide] fall in the same range of IC50: 10 to 30 nM for the first, 10 to 30 nM for the second.

What follows are molecules tested against T1, hcGAS (assay: hcGAS LCMS assay (direct measurement of cGAMP production)). Conditions: 0.5 nM hcGAS, 100 μM ATP, 100 μM GTP, 25 nM dsDNA, 4 h incubation.
Format: biochemical
Summary of the method: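 Direct LC/MS readout of cGAMP formed: 4-h enzyme–substrate incubation with compound, stopped by acetonitrile/water quench carrying isotope-labelled cGAMP (0.15 mM) as standard. Potency reported as IC50 ranges.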

First: COc1c(N[C@@H]2CCCCC[C@@H]2O)cc(C(=O)Nc2nnc(-n3nccc3C)s2)oc1=O (racemic) [Rac-26, 4-(((cis)-2-hydroxycycloheptyl)amino)-3-methoxy-N-(5-(5-methyl-1H-pyrazol-1-yl)-1,3,4-thiadiazol-2-yl)-2-oxo-2H-pyran-6-carboxamide]
Second: COc1c(N[C@@H]2CCCC[C@H]2OC)cc(C(=O)Nc2nnc(-n3nccc3C)s2)oc1=O [Compound 202, 3-methoxy-4-(((1R,2R)-2-methoxycyclohexyl)amino)-N-(5-(5-methyl-1H-pyrazol-1-yl)-1,3,4-thiadiazol-2-yl)-2-oxo-2H-pyran-6-carboxamide]
The IC50 of the first is lower: less than 5 nM for the first, 5 to 20 nM for the second.

Compared with `COCCNc1cc(C(=O)Nc2nnc(-c3ccsc3Cl)s2)oc(=O)c1OC` [Compound 135, N-(5-(2-chlorothiophen-3-yl)-1,3,4-thiadiazol-2-yl)-3-methoxy-4-((2-methoxyethyl)amino)-2-oxo-2H-pyran-6-carboxamide], `COCCNc1cc(C(=O)Nc2nnc(-c3c(C#N)csc3C)s2)oc(=O)c1OC` [Compound 140, N-(5-(4-cyano-2-methylthiophen-3-yl)-1,3,4-thiadiazol-2-yl)-3-methoxy-4-((2-methoxyethyl)amino)-2-oxo-2H-pyran-6-carboxamide] is higher in IC50: 20 to 60 nM for the first, 60 to 200 nM for the second.

`COc1c(N[C@@H]2CCC[C@H]2OC)cc(C(=O)Nc2nnc(-n3nccc3C)s2)oc1=O` (single isomer, unassigned) [3*] and `COc1c(N[C@H]2CCC[C@H]2C#N)cc(C(=O)Nc2nnc(-n3nccc3C)s2)oc1=O` (single isomer, unassigned) [Compound 74] cannot be ordered by IC50: less than 5 nM for the first, less than 5 nM for the second.

First: COC[C@@H](Nc1cc(C(=O)Nc2nnc(-n3nccc3C)s2)oc(=O)c1OC)c1ccccc1OC (single isomer, unassigned) [199*]
Second: COC[C@@H](Nc1cc(C(=O)Nc2nnc(-n3nccc3C)s2)oc(=O)c1OC)C(C)C [Compound 77, (S)-3-methoxy-4-((1-methoxy-3-methylbutan-2-yl)amino)-N-(5-(5-methyl-1H-pyrazol-1-yl)-1,3,4-thiadiazol-2-yl)-2-oxo-2H-pyran-6-carboxamide]
The IC50 of the first is lower: less than 5 nM for the first, 5 to 20 nM for the second.

`COC[C@@H](Nc1cc(C(=O)Nc2nnc(-n3nccc3C)s2)oc(=O)c1OC)C1CC1` (single isomer, unassigned) [Compound 22*] and `COC[C@H](Nc1cc(C(=O)Nc2nnc(-n3nccc3C)s2)oc(=O)c1OC)C(C)C` [Compound 78, (R)-3-methoxy-4-((1-methoxy-3-methylbutan-2-yl)amino)-N-(5-(5-methyl-1H-pyrazol-1-yl)-1,3,4-thiadiazol-2-yl)-2-oxo-2H-pyran-6-carboxamide] cannot be ordered by IC50: less than 5 nM for the first, less than 5 nM for the second.

`COC[C@@H]1CCN1c1cc(C(=O)Nc2nnc(-n3nccc3C)s2)oc(=O)c1OC` [Compound 95, (S)-3-methoxy-4-(2-(methoxymethyl)azetidin-1-yl)-N-(5-(5-methyl-1H-pyrazol-1-yl)-1,3,4-thiadiazol-2-yl)-2-oxo-2H-pyran-6-carboxamide] and `COC[C@H]1CCN1c1cc(C(=O)Nc2nnc(-n3nccc3C)s2)oc(=O)c1OC` [Compound 194, (R)-3-methoxy-4-(2-(methoxymethyl)azetidin-1-yl)-N-(5-(5-methyl-1H-pyrazol-1-yl)-1,3,4-thiadiazol-2-yl)-2-oxo-2H-pyran-6-carboxamide] fall in the same range of IC50: 5 to 20 nM for the first, 5 to 20 nM for the second.

First: COC[C@@H](C)Nc1cc(C(=O)Nc2nnc(-c3sccc3Cl)s2)oc(=O)c1OC [Compound 94, (R)—N-(5-(3-chlorothiophen-2-yl)-1,3,4-thiadiazol-2-yl)-3-methoxy-4-((1-methoxypropan-2-yl)amino)-2-oxo-2H-pyran-6-carboxamide]
Second: COc1c(N[C@H](C)[C@@H](C)OC)cc(C(=O)Nc2nnc(-n3nccc3C)s2)oc1=O [Compound 161, 5-methoxy-4-{[(2R,3R)-3-methoxybutan-2-yl]amino}-N-[5-(5-methylpyrazol-1-yl)-1,3,4-thiadiazol-2-yl]-6-oxopyran-2-carboxamide]
The IC50 of the first is higher: 5 to 20 nM for the first, less than 5 nM for the second. The second is the more potent here.

`COC[C@]1(Nc2cc(C(=O)Nc3nnc(-n4nccc4C)s3)oc(=O)c2OC)CCOC1` (single isomer, unassigned) [Compound 101*] and `COCC1(Nc2cc(C(=O)Nc3nnc(-n4nccc4C)s3)oc(=O)c2OC)COC1` [Compound 98, 3-methoxy-4-((3-(methoxymethyl)oxetan-3-yl)amino)-N-(5-(5-methyl-1H-pyrazol-1-yl)-1,3,4-thiadiazol-2-yl)-2-oxo-2H-pyran-6-carboxamide] fall in the same range of IC50: 5 to 20 nM for the first, 5 to 20 nM for the second.

First: COc1c(N[C@@H]2CC[C@@H]2OCC(F)F)cc(C(=O)Nc2nnc(-n3nccc3C)s2)oc1=O (single isomer, unassigned) [173*]
Second: COc1c(N[C@H]2CC[C@@H](OC)C2)cc(C(=O)Nc2nnc(-n3nccc3C)s2)oc1=O (single isomer, unassigned) [124*]
The IC50 of the first is higher: 20 to 60 nM for the first, 5 to 20 nM for the second.

First: COCCOc1c(NC23CC(C2)C3)cc(C(=O)Nc2nnc(-n3nccc3N)s2)oc1=O [Compound 210, N-(5-(5-amino-1H-pyrazol-1-yl)-1,3,4-thiadiazol-2-yl)-4-(bicyclo[1.1.1]pentan-1-ylamino)-3-(2-methoxyethoxy)-2-oxo-2H-pyran-6-carboxamide]
Second: COc1c(NC2CC3(COC3)C2)cc(C(=O)Nc2nnc(-n3nccc3C)s2)oc1=O [Compound 50, 4-((2-oxaspiro[3.3]heptan-6-yl)amino)-3-methoxy-N-(5-(5-methyl-1H-pyrazol-1-yl)-1,3,4-thiadiazol-2-yl)-2-oxo-2H-pyran-6-carboxamide]
The IC50 of the first is lower: 5 to 20 nM for the first, 60 to 200 nM for the second.

Compared with `COCC(COC)Nc1cc(C(=O)Nc2nnc(-n3nccc3CO)s2)oc(=O)c1OC` [Compound 143, 4-((1,3-dimethoxypropan-2-yl)amino)-N-(5-(5-(hydroxymethyl)-1H-pyrazol-1-yl)-1,3,4-thiadiazol-2-yl)-3-methoxy-2-oxo-2H-pyran-6-carboxamide], `COc1c(N[C@@H]2CC[C@H](OC)C2)cc(C(=O)Nc2nnc(-n3nccc3C)s2)oc1=O` (single isomer, unassigned) [125*] is lower in IC50: 20 to 60 nM for the first, 5 to 20 nM for the second. The second is the more potent here.

First: COc1c(N[C@H]2CCC[C@H]2O)cc(C(=O)Nc2nnc(-c3c(Cl)ccn3C)s2)oc1=O [Compound 83, N-(5-(3-chloro-1-methyl-1H-pyrrol-2-yl)-1,3,4-thiadiazol-2-yl)-4-(((1S,2R)-2-hydroxycyclopentyl)amino)-3-methoxy-2-oxo-2H-pyran-6-carboxamide]
Second: COc1c(N2CC[C@H](OC)C2=O)cc(C(=O)Nc2nnc(-n3nccc3C)s2)oc1=O [Compound 151, 5-methoxy-4-[(3S)-3-methoxy-2-oxopyrrolidin-1-yl]-N-[5-(5-methylpyrazol-1-yl)-1,3,4-thiadiazol-2-yl]-6-oxopyran-2-carboxamide]
The IC50 of the first is lower: less than 5 nM for the first, 5 to 20 nM for the second. The first is the more potent here.

Work on `COC[C@H](C1CC1)N1CCOc2c1cc(C(=O)Nc1nnc(-n3nccc3C)s1)oc2=O` [Compound 226, (S)-1-(1-cyclopropyl-2-methoxyethyl)-N-(5-(5-methyl-1H-pyrazol-1-yl)-1,3,4-thiadiazol-2-yl)-5-oxo-1,2,3,5-tetrahydropyrano[3,4-b][1,4]oxazine-7-carboxamide] yielded an IC50 of less than 5 nM.
